Data on 65 compounds can be found in ChEMBL document CHEMBL1122107, “Structure-antitumor activity relationships of 9-anilinoacridines using pattern recognition” (1982).

The subject of the assay is L1210. Nature of the assay: Tumor cell selectivity determined as maximal percent increase in life span (ILSmax) at LD10 dosage level in L1210 cells. The class given is functional, Mus musculus.
`CCCC(=O)N(c1ccc(Nc2c3ccccc3nc3cc(N)ccc23)cc1)S(C)(=O)=O` displayed an ILSmax of 55%. Then `CC(=O)Nc1ccc(Nc2c3ccccc3nc3ccccc23)cc1`, with 60%; and `COc1cc(Nc2c3ccccc3nc3ccccc23)ccc1N`, with 25%.

For `CCOc1cc(NS(C)(=O)=O)ccc1Nc1c2ccccc2nc2ccccc12`, the ILSmax turned out to be 75%.

`Nc1ccc(C(=O)Nc2ccc(N=c3c4ccccc4[nH]c4ccc(N)cc34)cc2)cc1`: the ILSmax is reported as 76%. Then `N=C(N)NCCCS(=O)(=O)Nc1ccc(Nc2c3ccc(N)cc3nc3ccc(N)cc23)cc1`, with 129%; and `COc1cc(NS(C)(=O)=O)ccc1Nc1c2ccccc2nc2cc(I)ccc12`, with 74%. Then `O=C(O)CCCCCc1ccc(NC(=O)Nc2ccc(Nc3c4ccccc4nc4ccccc34)cc2)cc1`, with 60%; and `NC(=O)CCCCc1ccc(Nc2c3ccccc3nc3ccccc23)cc1`, with 82%; and `CNc1ccc2c(Nc3ccc(NS(C)(=O)=O)cc3)c3cccc(C)c3nc2c1C`, with 70%.

With `CCCCNc1ccc(Nc2c3ccccc3nc3ccccc23)cc1`, the ILSmax is 25%. The figure for `COc1ccc2c(Nc3ccc(NS(C)(=O)=O)cc3)c3ccc(N)cc3nc2c1` is 105%; for `CCCCCCS(=O)(=O)Nc1ccc(Nc2c3ccccc3nc3cc(NC(C)=O)ccc23)cc1` it is 42%; for `CC(C)CC(=O)Nc1ccc(Nc2c3ccccc3nc3ccccc23)cc1` it is 105%.

Compound `CNc1ccc2c(Nc3ccc(C(=O)O)cc3)c3ccccc3nc2c1` showed an ILSmax of 25%. The figure for `Nc1ccc2c(Nc3ccc([N+](=O)[O-])cc3)c3ccccc3nc2c1` is 25%; for `NCCCS(=O)(=O)c1ccc(Nc2c3ccccc3nc3cc([N+](=O)[O-])ccc23)cc1` it is 95%. The figure for `CC(=O)Nc1ccc(S(=O)(=O)Nc2ccc(Nc3c4ccccc4nc4ccccc34)cc2)cc1` is 151%; for `NCCS(=O)(=O)Nc1ccc(Nc2c3ccccc3nc3ccccc23)cc1` it is 25%; for `Cc1ccc2c(Nc3ccc(NS(C)(=O)=O)cc3)c3ccccc3nc2c1` it is 85%.

The compound `COc1ccc(Nc2c3ccccc3nc3ccccc23)c(NS(C)(=O)=O)c1` displayed an ILSmax of 50%. Then `N=C(N)NCCCCS(=O)(=O)Nc1ccc(Nc2c3ccccc3nc3cc([N+](=O)[O-])ccc23)cc1`, with 110%.

Turning to `CC(=O)Nc1ccccc1Nc1c2ccccc2nc2ccccc12`, the ILSmax was found to be 25%. Then `O=C(Nc1ccc(Nc2c3ccccc3nc3ccccc23)cc1)OCC(O)CO` (stereo not given), with 70%; and `Cc1ccc2c(Nc3ccc(NS(C)(=O)=O)cc3)c3cccc(C)c3nc2c1`, with 70%; and `CCCCOc1cccc2c(Nc3ccc(NS(C)(=O)=O)cc3OC)c3ccccc3nc12`, with 80%.

On to `c1ccc2c(Nc3ccc(N4CCNCC4)cc3)c3ccccc3nc2c1`, for which the ILSmax was found to be 25%. Then `COc1cc(NS(C)(=O)=O)ccc1Nc1c2cccc(C)c2nc2c(C)c(C)ccc12`, with 120%; and `CCOc1cccc2c(Nc3ccc(NS(C)(=O)=O)cc3)c3ccccc3nc12`, with 85%; and `CN(c1ccc(Nc2c3ccccc3nc3ccccc23)cc1)S(C)(=O)=O`, with 65%. The figure for `O=[N+]([O-])c1ccc(S(=O)(=O)Nc2ccc(Nc3c4ccccc4nc4cc([N+](=O)[O-])ccc34)cc2)cc1` is 200%. The figure for `O=[N+]([O-])c1ccccc1Nc1c2ccccc2nc2ccccc12` is 25%; for `C(=C/c1ccc(Nc2c3ccccc3nc3ccccc23)cc1)/c1ccccc1` it is 25%; for `CS(=O)(=O)Nc1ccc(Nc2c3ccccc3nc3cc(NC(=O)c4ccccc4)ccc23)cc1` it is 25%. On to `CS(=O)(=O)Nc1ccc(Nc2c3ccccc3nc3cc(I)ccc23)cc1`, for which the ILSmax is 160%. In turn, `Cc1cccc2c(Nc3ccc(NS(=O)(=O)CCCCN)cc3)c3cccc(C)c3nc12` registered an ILSmax of 72%. Then `O=C(O)c1ccc(Nc2c3ccccc3nc3ccccc23)cc1`, with 90%; and `O=S(=O)(CCl)Nc1ccc(Nc2c3ccccc3nc3ccccc23)cc1`, with 55%; and `COc1cc(NS(C)(=O)=O)ccc1Nc1c2ccccc2nc2cc(C#N)ccc12`, with 93%. Then `CNc1ccc2c(Nc3ccc(NS(C)(=O)=O)cc3OC)c3ccccc3nc2c1`, with 83%. Then `COc1cc(NS(C)(=O)=O)ccc1Nc1c2ccccc2nc2c1ccc1ncccc12`, with 83%; and `Fc1ccccc1Nc1c2ccccc2nc2ccccc12`, with 25%. With `CN(C)c1ccc(NC(=O)Nc2ccc(Nc3c4ccccc4nc4ccccc34)cc2)cc1`, the ILSmax came out at 170%. Then `Oc1cccc(Nc2c3ccccc3nc3ccccc23)c1`, with 25%; and `NCCc1ccc(Nc2c3ccccc3nc3cc([N+](=O)[O-])ccc23)cc1`, with 25%. Then `Cc1cccc2nc3ccccc3c(Nc3ccc(NS(C)(=O)=O)cc3)c12`, with 25%; and `COc1cc(NS(C)(=O)=O)ccc1Nc1c2ccccc2nc2cc(C)ccc12`, with 168%. The figure for `COc1ccc(Nc2c3ccccc3nc3cc([N+](=O)[O-])ccc23)cc1` is 30%. In turn, `COc1cc(NS(C)(=O)=O)ccc1Nc1c2ccc(I)cc2nc2c(OC)cccc12` gave an ILSmax of 100%. The figure for `CCCC(=O)N(c1ccc(Nc2c3ccccc3nc3c(C)cccc23)cc1)S(C)(=O)=O` is 75%; for `COc1ccc(Nc2c3ccccc3nc3ccccc23)cc1` it is 25%. Consider `CS(=O)(=O)Nc1ccc(Nc2c3ccccc3nc3ccccc23)c(OCCO)c1`, for which the ILSmax is 67%. The figure for `CNS(=O)(=O)c1ccc(N=c2c3ccccc3[nH]c3cc(N)ccc23)cc1` is 55%.

For the compound `COc1ccc2c(Nc3ccc(NS(C)(=O)=O)cc3OC)c3ccc(Cl)cc3nc2c1`, the ILSmax is listed as 50%. Then `CS(=O)(=O)Nc1ccc(Nc2c3ccccc3nc3cc([N+](=O)[O-])ccc23)cc1`, with 69%; and `NC(=O)N/N=C/c1ccc(Nc2c3ccccc3nc3ccccc23)cc1`, with 72%. The figure for `CCCC(=O)N(c1ccc(Nc2c3ccccc3nc3cc(NC(C)=O)ccc23)cc1)S(C)(=O)=O` is 95%; for `O=C(O)CCCCCCc1ccc(Nc2c3ccccc3nc3ccccc23)cc1` it is 74%. As for `COc1cc(/C=C/C(=O)O)ccc1Nc1c2ccccc2nc2ccccc12`, the ILSmax is on record as 27%.

In turn, `CCCCCS(=O)(=O)Nc1ccc(Nc2c3ccccc3nc3cc([N+](=O)[O-])ccc23)c(OC)c1` registered an ILSmax of 72%.

As to `CS(=O)(=O)Nc1ccc(Nc2c3ccccc3nc3ccccc23)cc1Cl`, the ILSmax amounted to 25%. Then `COc1cc(NS(C)(=O)=O)ccc1Nc1c2ccccc2nc2c(Br)cccc12`, with 100%; and `Ic1ccccc1Nc1c2ccccc2nc2ccccc12`, with 25%. In the case of `O=C(O)CCCCc1ccc(NC(=O)Nc2ccc(N=c3c4ccccc4[nH]c4ccccc34)cc2)cc1`, the ILSmax is on record as 80%.

Compound `NCCCCc1ccc(Nc2c3ccccc3nc3cc([N+](=O)[O-])ccc23)cc1` had an ILSmax of 25%.
